Values quoted from earlier work in PMC9186412, “Rational Framework for the Design of Trp- and Arg-Rich Peptide Antibiotics Against Multidrug-Resistant Bacteria” (Frontiers in Microbiology, 2022).

system: CDC AR isolates; design: key: S (green), susceptible; I (blue), intermediate; R (red), resistant; settings: Acinetobacter baumannii AB273, CDC AR isolate; data provided by the CDC; ref CDC; cited from earlier work
Text: Supplement Table_3.XLSX, sheet "CDC AR isolates profiles" | column: G(-) strains

| Structure (SMILES) | Antibiotic susceptibility profile |
| --- | --- |
| O=C(O)c1cn(C2CC2)c2cc(N3CCNCC3)c(F)cc2c1=O [Ciprofloxacin] | R |
| CO/N=C(\C(=O)N[C@@H]1C(=O)N2C(C(=O)O)=C(CSc3nc(=O)c(=O)[nH]n3C)CS[C@H]12)c1csc(N)n1 [Ceftriaxone] | R |
| C[C@@H](O)[C@H]1C(=O)N2C(C(=O)O)=C(S[C@@H]3CN[C@H](CNS(N)(=O)=O)C3)[C@H](C)[C@H]12 [Doripenem] | R |

same assay, conditions: Acinetobacter baumannii AB274, CDC AR isolate; data provided by the CDC; ref CDC; cited from earlier work

| Structure (SMILES) | Antibiotic susceptibility profile |
| --- | --- |
| O=C(O)c1cn(C2CC2)c2cc(N3CCNCC3)c(F)cc2c1=O [Ciprofloxacin] | R |
| CO/N=C(\C(=O)N[C@@H]1C(=O)N2C(C(=O)O)=C(CSc3nc(=O)c(=O)[nH]n3C)CS[C@H]12)c1csc(N)n1 [Ceftriaxone] | R |
| C[C@@H](O)[C@H]1C(=O)N2C(C(=O)O)=C(S[C@@H]3CN[C@H](CNS(N)(=O)=O)C3)[C@H](C)[C@H]12 [Doripenem] | R |

same assay, conditions: Acinetobacter baumannii AB275, CDC AR isolate; data provided by the CDC; ref CDC; cited from earlier work

| Structure (SMILES) | Antibiotic susceptibility profile |
| --- | --- |
| O=C(O)c1cn(C2CC2)c2cc(N3CCNCC3)c(F)cc2c1=O [Ciprofloxacin] | R |
| CO/N=C(\C(=O)N[C@@H]1C(=O)N2C(C(=O)O)=C(CSc3nc(=O)c(=O)[nH]n3C)CS[C@H]12)c1csc(N)n1 [Ceftriaxone] | R |
| C[C@@H](O)[C@H]1C(=O)N2C(C(=O)O)=C(S[C@@H]3CN[C@H](CNS(N)(=O)=O)C3)[C@H](C)[C@H]12 [Doripenem] | R |

same assay, conditions: Acinetobacter baumannii AB276, CDC AR isolate; data provided by the CDC; ref CDC; cited from earlier work

| Structure (SMILES) | Antibiotic susceptibility profile |
| --- | --- |
| O=C(O)c1cn(C2CC2)c2cc(N3CCNCC3)c(F)cc2c1=O [Ciprofloxacin] | R |
| CO/N=C(\C(=O)N[C@@H]1C(=O)N2C(C(=O)O)=C(CSc3nc(=O)c(=O)[nH]n3C)CS[C@H]12)c1csc(N)n1 [Ceftriaxone] | R |
| C[C@@H](O)[C@H]1C(=O)N2C(C(=O)O)=C(S[C@@H]3CN[C@H](CNS(N)(=O)=O)C3)[C@H](C)[C@H]12 [Doripenem] | R |

same assay, conditions: Enterobacter cloacae E62, CDC AR isolate; data provided by the CDC; ref CDC; cited from earlier work

| Structure (SMILES) | Antibiotic susceptibility profile |
| --- | --- |
| CO/N=C(\C(=O)N[C@@H]1C(=O)N2C(C(=O)O)=C(CSc3nc(=O)c(=O)[nH]n3C)CS[C@H]12)c1csc(N)n1 [Ceftriaxone] | R |
| C[C@@H](O)[C@H]1C(=O)N2C(C(=O)O)=C(S[C@@H]3CN[C@H](CNS(N)(=O)=O)C3)[C@H](C)[C@H]12 [Doripenem] | S |

same assay, conditions: Enterobacter cloacae E544, CDC AR isolate; data provided by the CDC; ref CDC; cited from earlier work

| Structure (SMILES) | Antibiotic susceptibility profile |
| --- | --- |
| CO/N=C(\C(=O)N[C@@H]1C(=O)N2C(C(=O)O)=C(CSc3nc(=O)c(=O)[nH]n3C)CS[C@H]12)c1csc(N)n1 [Ceftriaxone] | R |
| C[C@@H](O)[C@H]1C(=O)N2C(C(=O)O)=C(S[C@@H]3CN[C@H](CNS(N)(=O)=O)C3)[C@H](C)[C@H]12 [Doripenem] | R |

same assay, conditions: Enterobacter cloacae E545, CDC AR isolate; data provided by the CDC; ref CDC; cited from earlier work

| Structure (SMILES) | Antibiotic susceptibility profile |
| --- | --- |
| CO/N=C(\C(=O)N[C@@H]1C(=O)N2C(C(=O)O)=C(CSc3nc(=O)c(=O)[nH]n3C)CS[C@H]12)c1csc(N)n1 [Ceftriaxone] | R |
| C[C@@H](O)[C@H]1C(=O)N2C(C(=O)O)=C(S[C@@H]3CN[C@H](CNS(N)(=O)=O)C3)[C@H](C)[C@H]12 [Doripenem] | S |

same assay, conditions: Enterobacter cloacae E546, CDC AR isolate; data provided by the CDC; ref CDC; cited from earlier work

| Structure (SMILES) | Antibiotic susceptibility profile |
| --- | --- |
| CO/N=C(\C(=O)N[C@@H]1C(=O)N2C(C(=O)O)=C(CSc3nc(=O)c(=O)[nH]n3C)CS[C@H]12)c1csc(N)n1 [Ceftriaxone] | R |
| C[C@@H](O)[C@H]1C(=O)N2C(C(=O)O)=C(S[C@@H]3CN[C@H](CNS(N)(=O)=O)C3)[C@H](C)[C@H]12 [Doripenem] | R |

same assay, conditions: Escherichia coli EC541, CDC AR isolate; data provided by the CDC; ref CDC; cited from earlier work

| Structure (SMILES) | Antibiotic susceptibility profile |
| --- | --- |
| CO/N=C(\C(=O)N[C@@H]1C(=O)N2C(C(=O)O)=C(CSc3nc(=O)c(=O)[nH]n3C)CS[C@H]12)c1csc(N)n1 [Ceftriaxone] | R |
| C[C@@H](O)[C@H]1C(=O)N2C(C(=O)O)=C(S[C@@H]3CN[C@H](CNS(N)(=O)=O)C3)[C@H](C)[C@H]12 [Doripenem] | S |

same assay, conditions: Escherichia coli EC543, CDC AR isolate; data provided by the CDC; ref CDC; cited from earlier work

| Structure (SMILES) | Antibiotic susceptibility profile |
| --- | --- |
| CO/N=C(\C(=O)N[C@@H]1C(=O)N2C(C(=O)O)=C(CSc3nc(=O)c(=O)[nH]n3C)CS[C@H]12)c1csc(N)n1 [Ceftriaxone] | R |
| C[C@@H](O)[C@H]1C(=O)N2C(C(=O)O)=C(S[C@@H]3CN[C@H](CNS(N)(=O)=O)C3)[C@H](C)[C@H]12 [Doripenem] | I |

same assay, conditions: Escherichia coli EC544, CDC AR isolate; data provided by the CDC; ref CDC; cited from earlier work

| Structure (SMILES) | Antibiotic susceptibility profile |
| --- | --- |
| CO/N=C(\C(=O)N[C@@H]1C(=O)N2C(C(=O)O)=C(CSc3nc(=O)c(=O)[nH]n3C)CS[C@H]12)c1csc(N)n1 [Ceftriaxone] | R |
| C[C@@H](O)[C@H]1C(=O)N2C(C(=O)O)=C(S[C@@H]3CN[C@H](CNS(N)(=O)=O)C3)[C@H](C)[C@H]12 [Doripenem] | R |

same assay, conditions: Escherichia coli EC549, CDC AR isolate; data provided by the CDC; ref CDC; cited from earlier work

| Structure (SMILES) | Antibiotic susceptibility profile |
| --- | --- |
| CO/N=C(\C(=O)N[C@@H]1C(=O)N2C(C(=O)O)=C(CSc3nc(=O)c(=O)[nH]n3C)CS[C@H]12)c1csc(N)n1 [Ceftriaxone] | R |
| C[C@@H](O)[C@H]1C(=O)N2C(C(=O)O)=C(S[C@@H]3CN[C@H](CNS(N)(=O)=O)C3)[C@H](C)[C@H]12 [Doripenem] | R |

same assay, conditions: Klebsiella pneumoniae KP542, CDC AR isolate; data provided by the CDC; ref CDC; cited from earlier work

| Structure (SMILES) | Antibiotic susceptibility profile |
| --- | --- |
| CO/N=C(\C(=O)N[C@@H]1C(=O)N2C(C(=O)O)=C(CSc3nc(=O)c(=O)[nH]n3C)CS[C@H]12)c1csc(N)n1 [Ceftriaxone] | R |
| C[C@@H](O)[C@H]1C(=O)N2C(C(=O)O)=C(S[C@@H]3CN[C@H](CNS(N)(=O)=O)C3)[C@H](C)[C@H]12 [Doripenem] | I |

same assay, conditions: Klebsiella pneumoniae KP548, CDC AR isolate; data provided by the CDC; ref CDC; cited from earlier work

| Structure (SMILES) | Antibiotic susceptibility profile |
| --- | --- |
| CO/N=C(\C(=O)N[C@@H]1C(=O)N2C(C(=O)O)=C(CSc3nc(=O)c(=O)[nH]n3C)CS[C@H]12)c1csc(N)n1 [Ceftriaxone] | R |
| C[C@@H](O)[C@H]1C(=O)N2C(C(=O)O)=C(S[C@@H]3CN[C@H](CNS(N)(=O)=O)C3)[C@H](C)[C@H]12 [Doripenem] | R |

same assay, conditions: Klebsiella pneumoniae KP550, CDC AR isolate; data provided by the CDC; ref CDC; cited from earlier work

| Structure (SMILES) | Antibiotic susceptibility profile |
| --- | --- |
| CO/N=C(\C(=O)N[C@@H]1C(=O)N2C(C(=O)O)=C(CSc3nc(=O)c(=O)[nH]n3C)CS[C@H]12)c1csc(N)n1 [Ceftriaxone] | R |
| C[C@@H](O)[C@H]1C(=O)N2C(C(=O)O)=C(S[C@@H]3CN[C@H](CNS(N)(=O)=O)C3)[C@H](C)[C@H]12 [Doripenem] | R |

same assay, conditions: Klebsiella pneumoniae KP552, CDC AR isolate; data provided by the CDC; ref CDC; cited from earlier work

| Structure (SMILES) | Antibiotic susceptibility profile |
| --- | --- |
| CO/N=C(\C(=O)N[C@@H]1C(=O)N2C(C(=O)O)=C(CSc3nc(=O)c(=O)[nH]n3C)CS[C@H]12)c1csc(N)n1 [Ceftriaxone] | R |
| C[C@@H](O)[C@H]1C(=O)N2C(C(=O)O)=C(S[C@@H]3CN[C@H](CNS(N)(=O)=O)C3)[C@H](C)[C@H]12 [Doripenem] | R |

same assay, conditions: Pseudomonas aeruginosa PA229, CDC AR isolate; data provided by the CDC; ref CDC; cited from earlier work

| Structure (SMILES) | Antibiotic susceptibility profile |
| --- | --- |
| O=C(O)c1cn(C2CC2)c2cc(N3CCNCC3)c(F)cc2c1=O [Ciprofloxacin] | R |
| C[C@@H](O)[C@H]1C(=O)N2C(C(=O)O)=C(S[C@@H]3CN[C@H](CNS(N)(=O)=O)C3)[C@H](C)[C@H]12 [Doripenem] | R |

same assay, conditions: Pseudomonas aeruginosa PA230, CDC AR isolate; data provided by the CDC; ref CDC; cited from earlier work

| Structure (SMILES) | Antibiotic susceptibility profile |
| --- | --- |
| O=C(O)c1cn(C2CC2)c2cc(N3CCNCC3)c(F)cc2c1=O [Ciprofloxacin] | R |
| C[C@@H](O)[C@H]1C(=O)N2C(C(=O)O)=C(S[C@@H]3CN[C@H](CNS(N)(=O)=O)C3)[C@H](C)[C@H]12 [Doripenem] | R |

same assay, conditions: Pseudomonas aeruginosa PA231, CDC AR isolate; data provided by the CDC; ref CDC; cited from earlier work

| Structure (SMILES) | Antibiotic susceptibility profile |
| --- | --- |
| O=C(O)c1cn(C2CC2)c2cc(N3CCNCC3)c(F)cc2c1=O [Ciprofloxacin] | R |
| C[C@@H](O)[C@H]1C(=O)N2C(C(=O)O)=C(S[C@@H]3CN[C@H](CNS(N)(=O)=O)C3)[C@H](C)[C@H]12 [Doripenem] | R |

same assay, conditions: Pseudomonas aeruginosa PA232, CDC AR isolate; data provided by the CDC; ref CDC; cited from earlier work

| Structure (SMILES) | Antibiotic susceptibility profile |
| --- | --- |
| O=C(O)c1cn(C2CC2)c2cc(N3CCNCC3)c(F)cc2c1=O [Ciprofloxacin] | R |
| C[C@@H](O)[C@H]1C(=O)N2C(C(=O)O)=C(S[C@@H]3CN[C@H](CNS(N)(=O)=O)C3)[C@H](C)[C@H]12 [Doripenem] | S |

same assay, conditions: Pseudomonas aeruginosa PA239, CDC AR isolate; data provided by the CDC; ref CDC; cited from earlier work

| Structure (SMILES) | Antibiotic susceptibility profile |
| --- | --- |
| O=C(O)c1cn(C2CC2)c2cc(N3CCNCC3)c(F)cc2c1=O [Ciprofloxacin] | R |
| C[C@@H](O)[C@H]1C(=O)N2C(C(=O)O)=C(S[C@@H]3CN[C@H](CNS(N)(=O)=O)C3)[C@H](C)[C@H]12 [Doripenem] | R |
